ChEMBL document CHEMBL1127134, “Synthesis and antibacterial activity of (1R,5R,6R)-2-tert-butyl-6-(1-hydroxyethyl)oxapenem-3-carboxylic acid” (1993)
Values after ≈ are worked out from the molar mass of the structure shown.

What was measured:
Type in all cases: functional
Staphylococcus aureus [1] = assay: Minimum inhibitory concentration required for the antibacterial activity against Staphylococcus aureus 13N Munchen
Staphylococcus aureus [2] = assay: Minimum inhibitory concentration required for the antibacterial activity against Staphylococcus aureus 1756; conditions: Staphylococcus aureus; read-out: MIC
Staphylococcus aureus [3] = assay: Minimum inhibitory concentration required for the antibacterial activity against Staphylococcus aureus 21b Belgium
Staphylococcus aureus [4] = assay: Minimum inhibitory concentration required for the antibacterial activity against Staphylococcus aureus 25085
Staphylococcus aureus [5] = assay: Minimum inhibitory concentration required for the antibacterial activity against Staphylococcus aureus 25463
Staphylococcus aureus [6] = assay: Minimum inhibitory concentration required for the antibacterial activity against Staphylococcus aureus 25464
Staphylococcus aureus [7] = assay: Minimum inhibitory concentration required for the antibacterial activity against Staphylococcus aureus 25470
Staphylococcus aureus [8] = assay: Minimum inhibitory concentration required for the antibacterial activity against Staphylococcus aureus 25697
Staphylococcus aureus [9] = assay: Minimum inhibitory concentration required for the antibacterial activity against Staphylococcus aureus 25768
Staphylococcus aureus [10] = assay: Minimum inhibitory concentration required for the antibacterial activity against Staphylococcus aureus 41h Belgium
Staphylococcus aureus [11] = assay: Minimum inhibitory concentration required for the antibacterial activity against Staphylococcus aureus 4978 Israel
Staphylococcus aureus [12] = assay: Minimum inhibitory concentration required for the antibacterial activity against Staphylococcus aureus 77 Innsbruck
Staphylococcus aureus [13] = assay: Minimum inhibitory concentration required for the antibacterial activity against Staphylococcus aureus 79B Innsbruck
Staphylococcus aureus [14] = assay: Minimum inhibitory concentration required for the antibacterial activity against Staphylococcus aureus 86 Innsbruck
Staphylococcus aureus [15] = assay: Minimum inhibitory concentration required for the antibacterial activity against Staphylococcus aureus 90 Innsbruck
Staphylococcus aureus [16] = assay: Minimum inhibitory concentration for the antibacterial activity against Staphylococcus aureus 48N Munchen
Staphylococcus aureus [17] = assay: Minimum inhibitory concentration required for the antibacterial activity against Staphylococcus aureus 17N Munchen
Staphylococcus aureus [18] = assay: Minimum inhibitory concentration required for the antibacterial activity against Staphylococcus aureus 48N Munchen

Row | SMILES | MIC (Staphylococcus aureus [1]) [µg/mL] | MIC (Staphylococcus aureus [2]) [µg/mL] | MIC (Staphylococcus aureus [3]) [µg/mL] | MIC (Staphylococcus aureus [4]) [µg/mL] | MIC (Staphylococcus aureus [5]) [µg/mL] | MIC (Staphylococcus aureus [6]) [µg/mL] | MIC (Staphylococcus aureus [7]) [µg/mL] | MIC (Staphylococcus aureus [8]) [µg/mL] | MIC (Staphylococcus aureus [9]) [µg/mL] | MIC (Staphylococcus aureus [10]) [µg/mL] | MIC (Staphylococcus aureus [11]) [µg/mL] | MIC (Staphylococcus aureus [12]) [µg/mL] | MIC (Staphylococcus aureus [13]) [µg/mL] | MIC (Staphylococcus aureus [14]) [µg/mL] | MIC (Staphylococcus aureus [15]) [µg/mL] | MIC (Staphylococcus aureus [16]) [µg/mL] | MIC (Staphylococcus aureus [17]) [µg/mL] | MIC (Staphylococcus aureus [18]) [µg/mL]
1 | COc1cccc(OC)c1C(=O)N[C@@H]1C(=O)N2[C@@H]1SC(C)(C)[C@@H]2C(=O)O [METHICILLIN] | 50 (≈ 131 µM) | 50 (≈ 131 µM) | > 100 | 6.25 (≈ 16.4 µM) | 1.56 (≈ 4.1 µM) | > 100 | > 100 | 6.25 (≈ 16.4 µM) | 6.25 (≈ 16.4 µM) | > 100 | ≤ 0.78 | 50 (≈ 131 µM) | 25 (≈ 65.7 µM) | 25 (≈ 65.7 µM) | 50 (≈ 131 µM) | 6.25 (≈ 16.4 µM) | 3.12 (≈ 8.2 µM) | –
2 | CC1(C)S[C@@H]2[C@H](NC(=O)[C@H](NC(=O)N3CCN(S(C)(=O)=O)C3=O)c3ccccc3)C(=O)N2[C@H]1C(=O)O [MEZLOCILLIN] | 50 (≈ 92.7 µM) | 50 (≈ 92.7 µM) | 50 (≈ 92.7 µM) | 50 (≈ 92.7 µM) | 12.5 (≈ 23.2 µM) | 100 (≈ 185 µM) | 25 (≈ 46.3 µM) | 25 (≈ 46.3 µM) | 25 (≈ 46.3 µM) | 3.12 (≈ 5.78 µM) | 3.12 (≈ 5.78 µM) | 100 (≈ 185 µM) | 50 (≈ 92.7 µM) | 50 (≈ 92.7 µM) | > 100 | – | 12.5 (≈ 23.2 µM) | 12.5 (≈ 23.2 µM)
3 | O=C(O)c1cn(C2CC2)c2cc(N3CCNCC3)c(F)cc2c1=O [CIPROFLOXACIN] | 1.56 (≈ 4.71 µM) | ≤ 0.78 | 50 (≈ 151 µM) | ≤ 0.78 | 1.56 (≈ 4.71 µM) | ≤ 0.78 | ≤ 0.78 | 12.5 (≈ 37.7 µM) | 100 (≈ 302 µM) | 100 (≈ 302 µM) | ≤ 0.78 | > 100 | 100 (≈ 302 µM) | 100 (≈ 302 µM) | 12.5 (≈ 37.7 µM) | – | 12.5 (≈ 37.7 µM) | 12.5 (≈ 37.7 µM)
4 | CO[C@@]1(NC(=O)Cc2cccs2)C(=O)N2C(C(=O)O)=C(COC(N)=O)CS[C@@H]21 [CEFOXITIN] | > 100 | 50 (≈ 117 µM) | ≤ 0.78 | 12.5 (≈ 29.2 µM) | 1.56 (≈ 3.65 µM) | 50 (≈ 117 µM) | > 100 | 12.5 (≈ 29.2 µM) | 12.5 (≈ 29.2 µM) | 1.56 (≈ 3.65 µM) | 1.56 (≈ 3.65 µM) | 25 (≈ 58.5 µM) | 25 (≈ 58.5 µM) | 12.5 (≈ 29.2 µM) | 100 (≈ 234 µM) | – | 12.5 (≈ 29.2 µM) | 6.25 (≈ 14.6 µM)
